{"source": "patent US8865158B2", "about": "“Bacteriophages for reducing toxicity of bacteria” (priority 2012, dated 2014)", "key": {"[1]": {"test_system": "E. coli K-12 nalidixic acid-resistant mutants, Nal1-8", "assay": "MIC determination to nalidixic acid, resistant mutants", "type": "cell-based", "conditions": "Escherichia coli", "experimental": "Table 3 recites E. coli K-12 nalidixic acid-resistant mutants, Nal1-8, isolated on 50 μg/ml nalidixic acid. Substitutions in the GyrA protein are indicated, as well as the MIC to nalidixic acid.\n(§1) Over twenty different overnight cultures of a total of ˜10^11 E. coli K-12 cells were inoculated on Luria-Bertani (LB)-agar plates containing 50 μg/ml streptomycin or 50 μg/ml nalidixic acid. Resistant mutants emerged, in both cases, at a median frequency of ˜1 in 10^9 CFU, and were picked from different cultures, to reduce the occurrence of sibling mutants. These bacteria were streaked on an agar plate containing the appropriate antibiotic. The rpsL or gyrA genes of resistant mutants emerging on the plate were PCR-amplified followed by DNA sequencing.\n(§2) MIC determination was carried out by following the procedure described by Wiegand et al. (19). Briefly, bacterial cells were grown overnight at 32° C. in LB and diluted to 10^7-10^9 CFU/ml. The obtained suspension was serially diluted 10-fold for different spot concentrations, as indicated. Approximately 1 μl of bacterial suspension was then spotted onto selection plates containing different concentrations of either streptomycin or nalidixic acid along with the appropriate selection agent (chloramphenicol or tellurite), as indicated, using a 48-pin replicator. Plates were incubated overnight and photographed using MiniBis Pro (Bio-Imaging Systems). Photographs were digitally manipulated using GIMP2 software to adjust contrast. Liquid-based MIC determination assays were carried out by inoculating serial dilutions of an antibiotic in liquid LB broth with bacterial cultures (OD600 ˜0.05) in 96-well microtiter plates. Plates were incubated overnight at 32° C. and OD600 was then measured. The lowest antibiotic concentration at which the relative growth compared to the “no-drug” control was below 10% was determined as the MIC."}, "pathogenic E. coli": {"test_system": "pathogenic E. coli", "conditions": "36 pathogenic E. coli resistant to high levels of nalidixic acid; cited from earlier work"}, "E. coli": {"test_system": "E. coli", "conditions": "cited from earlier work"}, "[2]": {"test_system": "E. coli K-12 streptomycin-resistant mutants, Sm1-22", "assay": "MIC determination to streptomycin, agar-plate assay, resistant mutants", "type": "cell-based", "conditions": "Escherichia coli", "experimental": "Table 2 recites the E. coli K-12 streptomycin-resistant mutants, Sm1-22, isolated on 50 μg/ml streptomycin. Substitutions in the RpsL protein are indicated, as well as the MIC to streptomycin.\nas §1, §2\nMinimum inhibitory concentration (MICs) to streptomycin were determined by agar-plate assay (19). In this assay, ˜10^4 cells are replica-plated on plates with different drug concentrations. The lowest concentration at which there is no visible colony-formation is defined as the MIC. The MICs throughout the study were also measured in a complementary liquid-determination assay, giving a similar readout (not shown). Two representatives of the most common streptomycin-resistant strains obtained above were taken for further study: strains Sm6 and Sm13, harboring mutations in rpsL leading to substitutions of R86S and K88R, respectively. […] These strains were transformed with the plasmid pRpsL-wt, encoding the wt rpsL, or a control plasmid, pRpsLΔ4, encoding a mock gene (a defective rpsL with a 4-bp deletion that disrupts the reading frame after amino acid 26 of the RpsL protein; see FIG. 1) under a modified early E. coli promoter from phage T7. Transformed cells were selected on agar plates supplemented with 35 μg/ml chloramphenicol, as the plasmid encodes chloramphenicol acetyl transferase, which confers chloramphenicol resistance. The MICs of the transformed strains to streptomycin were then determined."}, "[3]": {"test_system": "E. coli K-12 parental strain", "assay": "MIC to streptomycin of the parental strain", "type": "cell-based", "conditions": "Escherichia coli", "experimental": "MIC determination was carried out by following the procedure described by Wiegand et al. (19). Briefly, bacterial cells were grown overnight at 32° C. in LB and diluted to 10^7-10^9 CFU/ml. The obtained suspension was serially diluted 10-fold for different spot concentrations, as indicated. Approximately 1 μl of bacterial suspension was then spotted onto selection plates containing different concentrations of either streptomycin or nalidixic acid along with the appropriate selection agent (chloramphenicol or tellurite), as indicated, using a 48-pin replicator. Plates were incubated overnight and photographed using MiniBis Pro (Bio-Imaging Systems). […] Plates were incubated overnight at 32° C. and OD600 was then measured. […]\nMinimum inhibitory concentration (MICs) to streptomycin were determined by agar-plate assay (19). […] The MICs throughout the study were also measured in a complementary liquid-determination assay, giving a similar readout (not shown). […] These strains were transformed with the plasmid pRpsL-wt, encoding the wt rpsL, or a control plasmid, pRpsLΔ4, encoding a mock gene (a defective rpsL with a 4-bp deletion that disrupts the reading frame after amino acid 26 of the RpsL protein; see FIG. 1) under a modified early E. coli promoter from phage T7. […] The MICs of the transformed strains to streptomycin were then determined."}}, "note": "Where two headings read alike, the source gives them in different places."}
{"smiles": "CCn1cc(C(=O)O)c(=O)c2ccc(C)nc21", "note": "[nalidixic acid]", "values": [{"measurement": "MIC", "setting": "[1]; read-out: MIC to nalidixic acid, mutant Nal1, GyrA S83L", "result": "≥ 50", "unit": "µg/mL"}, {"measurement": "MIC", "setting": "[1]; read-out: MIC to nalidixic acid, mutant Nal2, GyrA S83L", "result": "≥ 50", "unit": "µg/mL"}, {"measurement": "MIC", "setting": "[1]; read-out: MIC to nalidixic acid, mutant Nal3, GyrA S83L", "result": "≥ 50", "unit": "µg/mL"}, {"measurement": "MIC", "setting": "[1]; read-out: MIC to nalidixic acid, mutant Nal4, GyrA D87G", "result": 128, "unit": "µg/mL"}, {"measurement": "MIC", "setting": "[1]; read-out: MIC to nalidixic acid, mutant Nal5, GyrA D87G", "result": 128, "unit": "µg/mL"}, {"measurement": "MIC", "setting": "[1]; read-out: MIC to nalidixic acid, mutant Nal6, GyrA D87G", "result": 128, "unit": "µg/mL"}, {"measurement": "MIC", "setting": "[1]; read-out: MIC to nalidixic acid, mutant Nal7, GyrA D87G", "result": 128, "unit": "µg/mL"}, {"measurement": "MIC", "setting": "[1]; read-out: MIC to nalidixic acid, mutant Nal8, GyrA D87G", "result": 128, "unit": "µg/mL"}, {"measurement": "MIC of nalidixic acid", "setting": "pathogenic E. coli", "result": "≥ 256", "unit": "µg/mL"}]}
{"smiles": "O=[Te]([O-])[O-].[K+].[K+]", "note": "[tellurite, potassium-tellurite (K2TeO3)]", "values": [{"measurement": "MIC of tellurite", "setting": "E. coli; E. coli either having or lacking the chromosomal tehAB genes", "result": 2, "unit": "µg/mL"}, {"measurement": "MIC of tellurite", "setting": "E. coli; cells harboring an extrachromosomal tehAB with an active promoter", "result": 128, "unit": "µg/mL"}, {"measurement": "Increase of MIC of tellurite upon tehAB expression from an active promoter", "setting": "E. coli; tehAB expressed from an active promoter (e.g. T7)", "result": "50-100 fold"}]}
{"smiles": "[H]/N=C(/N)N[C@H]1[C@H](O)[C@@H](O)[C@H](O[C@@H]2O[C@@H](C)[C@](O)(C=O)[C@H]2O[C@@H]2O[C@@H](CO)[C@H](O)[C@@H](O)[C@@H]2NC)[C@@H](N/C(N)=N\\[H])[C@@H]1O", "note": "[streptomycin]", "values": [{"measurement": "MIC", "setting": "[2]; read-out: MIC to streptomycin, mutant Sm1, RpsL P42S", "result": "≥ 50000", "unit": "µg/mL"}, {"measurement": "MIC", "setting": "[2]; read-out: MIC to streptomycin, mutant Sm3, RpsL K43N", "result": "≥ 50000", "unit": "µg/mL"}, {"measurement": "MIC", "setting": "[2]; read-out: MIC to streptomycin, mutant Sm4, RpsL R54S", "result": "≥ 50000", "unit": "µg/mL"}, {"measurement": "MIC", "setting": "[2]; read-out: MIC to streptomycin, mutant Sm5, RpsL R86S", "result": "≥ 50000", "unit": "µg/mL"}, {"measurement": "MIC", "setting": "[2]; read-out: MIC to streptomycin, mutant Sm6, RpsL R86S", "result": 100000, "unit": "µg/mL"}, {"measurement": "MIC", "setting": "[2]; read-out: MIC to streptomycin, mutant Sm7, RpsL R86S", "result": "≥ 50000", "unit": "µg/mL"}, {"measurement": "MIC", "setting": "[2]; read-out: MIC to streptomycin, mutant Sm8, RpsL R86S", "result": "≥ 50000", "unit": "µg/mL"}, {"measurement": "MIC", "setting": "[2]; read-out: MIC to streptomycin, mutant Sm9, RpsL R86S", "result": "≥ 50000", "unit": "µg/mL"}, {"measurement": "MIC", "setting": "[2]; read-out: MIC to streptomycin, mutant Sm10, RpsL R86S", "result": "≥ 50000", "unit": "µg/mL"}, {"measurement": "MIC", "setting": "[2]; read-out: MIC to streptomycin, mutant Sm11, RpsL K88E", "result": "≥ 50000", "unit": "µg/mL"}, {"measurement": "MIC", "setting": "[2]; read-out: MIC to streptomycin, mutant Sm22, no substitution in RpsL", "result": "≥ 50000", "unit": "µg/mL"}, {"measurement": "MIC", "setting": "[2]; read-out: MIC to streptomycin, resistant mutant Sm6 (R86S) without sensitizing construct", "result": 100, "unit": "µg/mL"}, {"measurement": "MIC", "setting": "[2]; read-out: MIC to streptomycin, resistant mutant Sm13 (K88R) without sensitizing construct", "result": 200, "unit": "µg/mL"}, {"measurement": "MIC", "setting": "[3]", "result": 1.56, "unit": "µg/mL"}]}
